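Each compound was tested at five concentrations against cells in 96-well plates for 48 hours. GI50 is the concentration that inhibits growth by half. TGI marks complete inhibition of growth.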
Experiments:
Assay in all cases: DTP human tumour cell line panel, 48 h
A498 renal = system: A498 renal
A549 NSCLC = system: A549 NSCLC
CAKI-1 renal = system: CAKI-1 renal
COLO 205 colon = system: COLO 205 colon
DU-145 prostate = system: DU-145 prostate
M14 melanoma = system: M14 melanoma
MCF7 breast = system: MCF7 breast
MDA-MB-435 = system: MDA-MB-435
MOLT-4 leukemia = system: MOLT-4 leukemia
NCI-H522 lung = system: NCI-H522 lung
OVCAR-3 ovarian = system: OVCAR-3 ovarian
OVCAR-5 ovarian = system: OVCAR-5 ovarian
PC-3 prostate = system: PC-3 prostate
SF-268 CNS = system: SF-268 CNS
SF-539 CNS = system: SF-539 CNS
TK-10 renal = system: TK-10 renal
UACC-257 melanoma = system: UACC-257 melanoma
UACC-62 melanoma = system: UACC-62 melanoma
BT-549 breast = system: BT-549 breast

Structure (SMILES)	TGI (A498 renal) [µM]	TGI (A549 NSCLC) [µM]	TGI (CAKI-1 renal) [µM]	TGI (COLO 205 colon) [µM]	TGI (DU-145 prostate) [µM]	TGI (M14 melanoma) [µM]	TGI (MCF7 breast) [µM]	TGI (MDA-MB-435) [µM]	TGI (MOLT-4 leukemia) [µM]	TGI (NCI-H522 lung) [µM]	TGI (OVCAR-3 ovarian) [µM]	TGI (OVCAR-5 ovarian) [µM]	TGI (PC-3 prostate) [µM]	TGI (SF-268 CNS) [µM]	TGI (SF-539 CNS) [µM]	TGI (TK-10 renal) [µM]	TGI (UACC-257 melanoma) [µM]	TGI (UACC-62 melanoma) [µM]	GI50 (A549 NSCLC) [µM]	TGI (BT-549 breast) [µM]
CN(C)c1ccc(N=C2N=C(Nc3ccccc3)C(=Nc3ccccc3)S2)cc1	> 100	> 100	> 100	> 100	> 100	> 100	> 100	> 100	> 100	> 100	> 100	> 100	> 100	> 100	> 100	> 100	> 100	> 100		
Cc1cc(Cl)ccc1NC(=O)/C(=N\NC(C)(C)C)C(C#N)c1nc(-c2ccc([N+](=O)[O-])cc2)cs1 (configuration not stated)	> 100	> 100	> 100			> 100			> 100	> 100	> 100	> 100		> 100	> 100	> 100	> 100	> 100		
C/C(O)=C(/C=N/C(=S)Nc1ccccc1)C(=O)Nc1ccccc1C	> 100	> 100	> 100	> 100	> 100	> 100	> 100	> 100	> 100	> 100	> 100	> 100	> 100	> 100	> 100	> 100	> 100	> 100		
CC(C)C1=Cc2ccc3c(c2C(=O)C1=O)CCCC3	18.5	34.4	2.15	27.1	32	11.1		21.4		18.1	5.33	28.6	26.8	16.6	16.9	6.55	6.57	15.4		
CN(C)CC1(C)CC/C(=C\c2ccc(Cl)cc2)C1=O (configuration not stated)	> 100	> 100	> 100	31.7		> 100			55.8	33.1	> 100	> 100		> 100	> 100	> 100	> 100	64.9		
CC(C)CC(=O)CC(C)[C@]1(CCCOCc2ccccc2)C(=O)N2CCC3(C[C@@]24CCC[C@H]41)OCCO3 (some centres not stated)	> 10		> 10	> 10		> 10	> 10	> 10	> 10	> 10	> 10	> 10	> 10	> 10	> 10	> 10				
O=C1c2ccccc2CC12Cc1cc3c(cc1C2)CCC3	> 100	> 100	> 100	> 100	> 100	94.1	> 100	> 100	82.1	> 100	> 100	> 100	> 100	> 100	> 100	> 100	91.3			
Cc1nc2ccc(Cl)cc2c2c1CCN2c1ccc(F)cc1	68.4	> 100	> 100	56.5	> 100	51.7	59.1	63.6	> 100	> 100	> 100	> 100	> 100	> 100	54.8	> 100	49.6	87.4		
NC(=O)N/N=C\CC(O)(C(F)(F)Cl)C(F)(F)Cl	> 10	> 10	> 10	> 10	> 10	> 10	> 10	> 10	> 10	> 10	> 10		> 10	> 10	> 10	> 10	> 10	> 10		
COc1cc2c(c(OC)c1OC)-c1ccc(SC)c(=O)cc1[C@@H](NC(=O)c1cccc([N+](=O)[O-])c1)CC2	0.0479	23.1		0.0343					> 100		0.0404	> 100		16.5	0.0377	55.3	33.9	36.4	0.033	
CC(=O)OCC12CC(CC1OC(C)=O)c1ccccc12 (configuration not stated)	> 100	> 100	> 100	> 100		> 100			> 100		> 100	> 100		> 100		> 100	> 100	> 100		
NC(=O)c1ncn(C2C=CC(CP(=O)(O)O)C2)c1N (configuration not stated)		> 100	> 100	> 100	> 100	> 100	> 100	> 100	> 100		> 100	> 100	> 100	> 100	> 100	> 100	> 100	> 100		
COC(=O)C(Cc1nc2ccc(Cl)cc2[nH]c1=O)C(=O)C(=O)Nc1cc(C)ccc1C (configuration not stated)	> 100	> 100	> 100	> 100		> 100			> 100	> 100	> 100	> 100		> 100	> 100	> 100	> 100	> 100		
COc1ccc(OC2(c3cc(OC)ccc3OC)OC(=O)c3ccccc32)cc1 (configuration not stated)	> 100	> 100	> 100	> 100		> 100			> 100	> 100	> 100	> 100		> 100	> 100	> 100	> 100	> 100		
NC(=O)N/N=C(\CC1OC(=O)c2ccccc21)c1ccc([N+](=O)[O-])cc1 (configuration not stated)	> 100	> 100	71.3	> 100		> 100			> 100		> 100				55	> 100	> 100	34.8		
Cc1cc(N(CCC#N)CCC#N)ccc1/C=C1N=C(/C=C\c2ccccc2)N(NC(=O)CC(=O)Nc2ccccc2Cl)C\1=O	> 100	> 100	> 100	> 100		> 100			> 100	> 100	> 100	> 100		> 100	> 100	> 100	> 100	> 100		

Structure (SMILES)	TGI (A498 renal) [µM]	TGI (A549 NSCLC) [µM]	TGI (CAKI-1 renal) [µM]	TGI (COLO 205 colon) [µM]	TGI (DU-145 prostate) [µM]	TGI (M14 melanoma) [µM]	TGI (MCF7 breast) [µM]	TGI (MDA-MB-435) [µM]	TGI (MOLT-4 leukemia) [µM]	TGI (NCI-H522 lung) [µM]	TGI (OVCAR-3 ovarian) [µM]	TGI (OVCAR-5 ovarian) [µM]	TGI (PC-3 prostate) [µM]	TGI (SF-268 CNS) [µM]	TGI (SF-539 CNS) [µM]	TGI (TK-10 renal) [µM]	TGI (UACC-257 melanoma) [µM]	TGI (UACC-62 melanoma) [µM]	GI50 (A549 NSCLC) [µM]	TGI (BT-549 breast) [µM]
CCOC(=O)C(C)NC(=O)NC12CC3CC(CC(F)(C3)C1)C2 (configuration not stated)	> 100	> 100		> 100		> 100			> 100	> 100	> 100	> 100			> 100	> 100	> 100	> 100		
N#C/C(c1nc2ccccc2[nH]1)=c1\s/c(=C/c2ccccc2)c(=O)n1-c1ccccc1	> 100	> 100	> 100	> 100		> 100			> 100	> 100	> 100	> 100		> 100	> 100	> 100	> 100	> 100		
COc1cccc(C2=NC(C(C)C)CO2)c1OC (configuration not stated)	> 100	> 100	> 100	> 100		> 100			> 100	> 100	> 100	> 100		> 100	> 100	> 100	> 100	> 100		
Cc1ccc(NC(=O)C2C3C=CC(O3)C2C(=O)O)cc1 (configuration not stated)	> 100	> 100		> 100		> 100			> 100	> 100	> 100	> 100		> 100	> 100	> 100	> 100	> 100		
CCc1cccc(C(C)C)c1NC(=O)/C(=N\NC(N)=O)C(C(=O)OC)c1cnc2ccccc2n1 (configuration not stated)	> 100	76.5	> 100	49.6		> 100			> 100	71.9	60.3	> 100		> 100	> 100	> 100	94.4	62.7		
COc1c(Sc2c(SCSc3cnc4ccccc4c3Sc3cnc4ccccc4c3OC)cnc3ccccc23)cnc2ccccc12		> 100	> 100	> 100	> 100	> 100		> 100	> 100	> 100	> 100	> 100	> 100	> 100	> 100	> 100	> 100	> 100		> 100
COc1cc(/C=C2\CCC(C)C3=C2N=c2s/c(=C/c4ccc(Cl)cc4)c(=O)n2C3c2cc(OC)c(OC)c(OC)c2)cc(OC)c1OC (configuration not stated)	> 100	> 100	> 100		> 100	> 100	> 100	> 100	> 100			> 100	> 100	> 100		> 100	> 100	> 100		
CC(=O)NC(CCCCNCc1ccccc1)C(=O)NCc1ccccc1 (configuration not stated)	> 100	> 100	> 100	> 100		> 100			> 100	> 100	> 100	> 100		> 100	> 100	> 100	> 100	> 100		
CC1(O)CC2C(CC1SC1CC3C(CC1(C)O)C3(C)C)C2(C)C (configuration not stated)		> 100		> 100		> 100			> 100		> 100	> 100		> 100	> 100	> 100	> 100			
CCOc1ccc(N(CC(=O)N2CC(=O)Nc3cc(C)c(C)cc32)C(C)=O)cc1		> 100	> 100	> 100		> 100			> 100	> 100	> 100	> 100		> 100	> 100	> 100	> 100	> 100		
O=C1c2cc3c(cc2CC12Cc1ccccc1C2)CCC3	> 100	> 100	75.1	48.5	> 100	70.6	54.6	73.1	54.5	93.3	> 100	> 100	> 100	93.7	93.2	> 100	54.4			
Cc1ccc(C(=O)NC2CCCCC2)cc1N=NN(C)C		> 100	> 100			> 100				> 100	> 100			> 100	> 100	> 100	> 100	> 100		
COc1cc([C@@H]2c3cc4c(cc3[C@@H](NCc3ccccc3F)C3COC(=O)[C@@H]32)OCO4)cc(OC)c1O (some centres not stated)	19.7	15.1	44.2	77.4		13.6			7.4	10.2	40.9	78.4		> 100	16.2	81.4	37.2	4.43		
C/C(=N\O)c1ccc(OCc2cc(C(F)(F)F)cc(C(F)(F)F)c2)cc1	> 100	> 100	> 100	> 100	> 100	> 100	> 100	> 100	68.5	> 100	> 100	> 100	> 100	> 100	> 100	> 100	> 100			
O=C1/C(=C/c2ccccc2Cl)COc2ccc(Br)cc21	> 100	> 100		> 100					> 100	80.1	> 100	> 100		> 100	> 100	> 100	> 100			
